Assay results as given in ChEMBL document CHEMBL1914447, “Novel orally active antimalarial thiazoles” (J Med Chem, 2011).
≈ marks a conversion by molar mass, not a printed value.

Key:
Plasmodium berghei [1] = assay: Antimalarial activity against GFP-transfected Plasmodium berghei ANKA infected in NMRI mouse assessed as reduction in parasitemia at 100 mg/kg, po administered as single dose after 72 hrs by flow cytometry; type: functional; parameters: scale not given: the % may be the effect or the level left
[2] = Cmax in Sprague-Dawley rat plasma at 21.8 mg/kg, po by LCMS analysis; type: ADME, organism-based; parameters: dose 21.8 mg/kg, route oral
[3] = Plasma protein binding in rat at 200 ng/mL; type: ADME, cell-free; conditions: read-out: PPB (converted)
Plasmodium berghei [4] = assay: Antimalarial activity against GFP-transfected Plasmodium berghei ANKA infected in NMRI mouse assessed as mean survival time at 200 mg/kg, po administered as single dose after 72 hrs; type: functional
Cytochrome P450 2D6 = Cytochrome P450 2D6 (Homo sapiens, UniProt P10635); assay: Inhibition of CYP2D6-mediated dextromethorphan O-demethylation in human liver microsomes by LCMS analysis; type: ADME, Microsome
Plasmodium berghei [5] = assay: Antimalarial activity against GFP-transfected Plasmodium berghei ANKA infected in NMRI mouse assessed as reduction in parasitemia at 50 mg/kg, po administered as quadruple dose regimen after 4 days by flow cytometry; type: functional; parameters: scale not given: the % may be the effect or the level left
Cytochrome P450 2C9 = Cytochrome P450 2C9 (Homo sapiens, UniProt P11712); assay: Inhibition of CYP2C9-mediated Tolbutamide methlyhydroxylation in human liver microsomes by LCMS analysis; type: ADME, Microsome
Liver = assay: Metabolic stability in mouse liver microsomes at 1 uM by LC-MS analysis; type: ADME, Microsome
[6] = AUC (0 to infinity) in Sprague-Dawley rat plasma at 4.5 mg/kg, iv by LCMS analysis; type: ADME, organism-based; parameters: time infinity, dose 4.5 mg/kg, route intravenous
Plasmodium berghei [7] = assay: Antimalarial activity against GFP-transfected Plasmodium berghei ANKA infected in po dosed NMRI mouse assessed as reduction in parasitemia administered as single dose after 72 hrs by flow cytometry; type: functional
[8] = Plasma protein binding in human at 200 ng/mL; type: ADME, cell-free; conditions: read-out: PPB (converted)
L6 = assay: Cytotoxicity against rat L6 cells assessed after 72 hrs by alamar blue staining; type: cell-based; conditions: L6, 72 h
[9] = Oral bioavailability in Sprague-Dawley rat at 21.8 mg/kg; type: ADME, organism-based; conditions: in vivo
[10] = Lipophilicity, log D of the compound by gradient HPLC at pH 3.0; type: physicochemical; conditions: buffer
[11] = AUC (0 to infinity) in Sprague-Dawley rat plasma at 21.8 mg/kg, po by LCMS analysis; type: ADME, organism-based; parameters: time infinity, dose 21.8 mg/kg, route oral
[12] = Tmax in Sprague-Dawley rat at 21.8 mg/kg, po by LCMS analysis; type: ADME, organism-based; parameters: dose 21.8 mg/kg, route oral; conditions: in vivo
CYP3A4/5 [13] = target: T1, CYP3A4/5 (Homo sapiens, UniProt P08684+P20815); assay: Inhibition of CYP3A4/5-mediated testosterone 6beta-hydroxylation in human liver microsomes by LCMS analysis; type: ADME, Microsome; conditions: probe testosterone (6beta-hydroxylation)
Cytochrome P450 2C19 = Cytochrome P450 2C19 (Homo sapiens, UniProt P33261); assay: Inhibition of CYP2C19-mediated (S)-mephenytoin 4'-hydroxylation in human liver microsomes by LCMS analysis; type: ADME, Microsome
[14] = Volume of distribution at steady state in Sprague-Dawley rat at 4.5 mg/kg, iv; type: ADME, organism-based; parameters: dose 4.5 mg/kg, route intravenous; conditions: in vivo, read-out: Vdss
Liver microsomes [15] = assay: Metabolic stability in rat liver microsomes at 1 uM by LC-MS analysis; type: ADME, Microsome
Cytochrome P450 1A2 = target: T2, Cytochrome P450 1A2 (Homo sapiens, UniProt P05177); assay: Inhibition of CYP1A2-mediated phencetin o-de-ethylation in human liver microsomes by LCMS analysis; type: ADME, Microsome
T2 sequence (P05177 whole entry): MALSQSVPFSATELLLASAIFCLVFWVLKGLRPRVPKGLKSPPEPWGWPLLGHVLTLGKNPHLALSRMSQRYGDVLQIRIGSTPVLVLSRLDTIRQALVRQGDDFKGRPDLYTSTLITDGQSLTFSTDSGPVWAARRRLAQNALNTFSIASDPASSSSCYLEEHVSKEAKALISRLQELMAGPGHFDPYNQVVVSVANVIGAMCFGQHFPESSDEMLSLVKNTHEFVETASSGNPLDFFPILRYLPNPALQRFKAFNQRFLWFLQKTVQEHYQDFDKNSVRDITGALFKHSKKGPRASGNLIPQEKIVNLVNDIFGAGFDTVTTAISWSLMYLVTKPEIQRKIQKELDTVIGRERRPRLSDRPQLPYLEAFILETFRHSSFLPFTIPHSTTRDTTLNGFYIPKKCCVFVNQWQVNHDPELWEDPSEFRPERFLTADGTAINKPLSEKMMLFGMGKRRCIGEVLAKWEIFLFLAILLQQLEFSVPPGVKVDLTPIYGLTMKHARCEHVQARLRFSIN

CYP3A4/5 [16] = target: T1, CYP3A4/5; assay: Inhibition of CYP3A4/5-mediated midazolam 1'-hydroxylation in human liver microsomes by LCMS analysis; type: ADME, Microsome; conditions: probe midazolam (1'-hydroxylation)
Plasmodium falciparum [17] = assay: microbe, parasite or virus in culture; conditions: K1
[18] = Ratio of drug level in blood to plasma of Sprague-Dawley rat at 4.5 mg/kg, iv; type: ADME, organism-based; parameters: dose 4.5 mg/kg, route intravenous; conditions: whole blood and plasma
[19] = Equilibrium solubility of the compound by nephelometry at pH 2.0; type: physicochemical; conditions: buffer
Plasmodium berghei [20] = assay: Antimalarial activity against GFP-transfected Plasmodium berghei ANKA infected in NMRI mouse assessed as reduction in parasitemia at 200 mg/kg, po administered as single dose after 72 hrs by flow cytometry; type: functional; parameters: scale not given: the % may be the effect or the level left
[21] = Equilibrium solubility of the compound by nephelometry at pH 6.5; type: physicochemical; conditions: buffer
[22] = Total clearance in Sprague-Dawley rat plasma at 4.5 mg/kg, iv; type: ADME, organism-based; parameters: dose 4.5 mg/kg, route intravenous
Plasmodium berghei [23] = assay: Antimalarial activity against GFP-transfected Plasmodium berghei ANKA infected in NMRI mouse assessed as mean survival time at 30 mg/kg, po administered as single dose; type: functional
Plasmodium berghei [24] = assay: Antimalarial activity against GFP-transfected Plasmodium berghei ANKA infected in NMRI mouse assessed as mean survival time at 100 mg/kg, po administered as single dose; type: functional
[25] = Apparent half life in Sprague-Dawley rat at 4.5 […], iv; type: ADME, organism-based; conditions: in vivo, read-out: t1/2(app) (converted)
[26] = Total clearance in Sprague-Dawley rat blood at 4.5 mg/kg, iv; type: ADME, organism-based; parameters: dose 4.5 mg/kg, route intravenous; conditions: whole blood
[27] = Plasma protein binding in mouse at 200 ng/mL; type: ADME, cell-free; conditions: read-out: PPB (converted)
Plasmodium berghei [28] = assay: Antimalarial activity against GFP-transfected Plasmodium berghei ANKA infected in NMRI mouse assessed as reduction in parasitemia at 10 mg/kg, po administered as single dose after 72 hrs by flow cytometry; type: functional; parameters: scale not given: the % may be the effect or the level left
Plasmodium berghei [29] = assay: Antimalarial activity against GFP-transfected Plasmodium berghei ANKA infected in NMRI mouse assessed as mean survival time at 50 mg/kg, po administered as quadruple dose regimen; type: functional
Plasmodium falciparum [30] = assay: microbe, parasite or virus in culture; conditions: NF54
Liver microsomes [31] = assay: Metabolic stability in human liver microsomes at 1 uM by LC-MS analysis; type: ADME, Microsome
[32] = target: Voltage-gated inwardly rectifying potassium channel KCNH2 (Homo sapiens, UniProt Q12809); assay: Inhibition of human ERG expressed in Chinese hamster CHL cells by perforated patch clamp assay; type: cell-based
Plasmodium berghei [33] = assay: Antimalarial activity against GFP-transfected Plasmodium berghei ANKA infected in NMRI mouse assessed as mean survival time at 10 mg/kg, po administered as single dose; type: functional
[34] = Apparent half life in Sprague-Dawley rat at 21.8 […], po; type: ADME, organism-based; conditions: in vivo, read-out: t1/2(app) (converted)
Plasmodium berghei [35] = assay: Antimalarial activity against GFP-transfected Plasmodium berghei ANKA infected in NMRI mouse assessed as reduction in parasitemia at 30 mg/kg, po administered as single dose after 72 hrs by flow cytometry; type: functional; parameters: scale not given: the % may be the effect or the level left
[36] = Lipophilicity, log D of the compound by gradient HPLC at pH 7.4; type: physicochemical; conditions: buffer
[37] = Kinetic solubility of the compound by nephelometry at pH 6.5; type: physicochemical; conditions: buffer, read-out: Kinetic_solubility
[38] = Kinetic solubility of the compound by nephelometry at pH 2.0; type: physicochemical; conditions: buffer, read-out: Kinetic_solubility

Chain of Cytochrome P450 2C19 (P33261 whole entry): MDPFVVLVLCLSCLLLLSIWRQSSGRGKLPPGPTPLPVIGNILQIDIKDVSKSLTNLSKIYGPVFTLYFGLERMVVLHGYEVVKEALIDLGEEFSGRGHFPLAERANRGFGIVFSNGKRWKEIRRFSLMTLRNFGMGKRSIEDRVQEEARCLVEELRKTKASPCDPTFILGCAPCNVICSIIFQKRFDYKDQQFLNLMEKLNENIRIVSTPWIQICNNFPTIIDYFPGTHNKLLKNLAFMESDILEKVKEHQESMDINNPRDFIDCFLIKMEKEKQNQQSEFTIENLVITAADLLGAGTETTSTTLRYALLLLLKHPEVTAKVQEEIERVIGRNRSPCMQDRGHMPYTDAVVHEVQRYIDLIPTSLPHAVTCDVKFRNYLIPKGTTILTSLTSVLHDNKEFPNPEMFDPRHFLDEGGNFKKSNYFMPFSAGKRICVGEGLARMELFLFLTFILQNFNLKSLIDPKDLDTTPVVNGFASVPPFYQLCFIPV
Chain of Voltage-gated inwardly rectifying potassium channel KCNH2 (Q12809 whole entry): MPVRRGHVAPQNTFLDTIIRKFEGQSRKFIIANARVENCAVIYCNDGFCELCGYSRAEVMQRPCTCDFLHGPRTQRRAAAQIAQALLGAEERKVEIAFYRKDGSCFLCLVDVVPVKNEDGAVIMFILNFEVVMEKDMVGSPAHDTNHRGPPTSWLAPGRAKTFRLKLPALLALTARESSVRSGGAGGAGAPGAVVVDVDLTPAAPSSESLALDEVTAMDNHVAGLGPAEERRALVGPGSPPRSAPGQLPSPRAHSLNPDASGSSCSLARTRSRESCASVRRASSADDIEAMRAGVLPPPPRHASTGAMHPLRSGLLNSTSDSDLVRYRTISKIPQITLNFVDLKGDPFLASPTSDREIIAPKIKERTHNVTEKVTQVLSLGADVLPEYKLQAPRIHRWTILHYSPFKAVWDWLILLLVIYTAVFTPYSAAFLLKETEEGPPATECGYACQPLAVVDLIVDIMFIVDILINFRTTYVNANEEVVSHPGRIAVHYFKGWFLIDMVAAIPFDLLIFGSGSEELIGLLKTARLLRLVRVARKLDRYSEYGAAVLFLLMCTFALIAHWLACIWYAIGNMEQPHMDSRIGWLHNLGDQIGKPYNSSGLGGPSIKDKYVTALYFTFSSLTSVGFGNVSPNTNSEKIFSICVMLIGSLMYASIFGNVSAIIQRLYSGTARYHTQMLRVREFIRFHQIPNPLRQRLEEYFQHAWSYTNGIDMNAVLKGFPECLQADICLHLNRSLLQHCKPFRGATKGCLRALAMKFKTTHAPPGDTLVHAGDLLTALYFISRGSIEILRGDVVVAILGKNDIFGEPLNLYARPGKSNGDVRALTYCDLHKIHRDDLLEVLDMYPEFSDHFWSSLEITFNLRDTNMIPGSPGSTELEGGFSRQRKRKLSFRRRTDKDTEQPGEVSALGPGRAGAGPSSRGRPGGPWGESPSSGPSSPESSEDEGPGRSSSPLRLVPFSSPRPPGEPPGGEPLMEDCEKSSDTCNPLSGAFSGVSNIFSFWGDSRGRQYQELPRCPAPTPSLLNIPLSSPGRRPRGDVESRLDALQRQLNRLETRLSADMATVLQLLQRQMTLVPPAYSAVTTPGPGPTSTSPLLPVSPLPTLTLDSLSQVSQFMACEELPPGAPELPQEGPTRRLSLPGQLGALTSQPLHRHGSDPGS
Chain of Cytochrome P450 2C9 (P11712 whole entry): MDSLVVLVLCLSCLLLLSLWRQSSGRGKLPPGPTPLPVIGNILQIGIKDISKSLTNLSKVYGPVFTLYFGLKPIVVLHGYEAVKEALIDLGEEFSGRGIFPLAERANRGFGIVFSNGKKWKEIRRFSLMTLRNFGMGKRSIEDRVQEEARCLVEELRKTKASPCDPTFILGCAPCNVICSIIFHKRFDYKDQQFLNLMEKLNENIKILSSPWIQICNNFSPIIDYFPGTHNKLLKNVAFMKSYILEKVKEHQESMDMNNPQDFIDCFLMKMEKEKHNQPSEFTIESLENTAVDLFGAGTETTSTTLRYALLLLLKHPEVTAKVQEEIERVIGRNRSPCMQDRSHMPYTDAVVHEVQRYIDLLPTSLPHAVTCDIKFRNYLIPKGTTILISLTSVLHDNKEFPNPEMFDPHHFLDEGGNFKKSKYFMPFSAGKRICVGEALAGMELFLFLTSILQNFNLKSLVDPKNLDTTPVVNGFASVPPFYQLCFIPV
Chain of Cytochrome P450 2D6 (P10635 whole entry): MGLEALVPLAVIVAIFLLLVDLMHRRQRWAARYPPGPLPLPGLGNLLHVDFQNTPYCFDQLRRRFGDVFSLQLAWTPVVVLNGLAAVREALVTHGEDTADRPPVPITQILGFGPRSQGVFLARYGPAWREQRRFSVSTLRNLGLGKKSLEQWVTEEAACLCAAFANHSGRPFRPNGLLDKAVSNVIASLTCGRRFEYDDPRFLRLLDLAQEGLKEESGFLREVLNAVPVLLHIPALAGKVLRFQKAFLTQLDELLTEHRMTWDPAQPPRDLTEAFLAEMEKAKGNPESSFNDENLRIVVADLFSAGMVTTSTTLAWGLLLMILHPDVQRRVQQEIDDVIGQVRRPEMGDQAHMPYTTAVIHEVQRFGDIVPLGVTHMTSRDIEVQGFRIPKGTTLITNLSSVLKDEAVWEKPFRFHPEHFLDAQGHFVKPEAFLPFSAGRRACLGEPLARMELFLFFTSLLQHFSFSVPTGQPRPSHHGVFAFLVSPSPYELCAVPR

## CC(C)(C)c1cc(C(=O)Nc2nc(CN)cs2)n(Cc2ccccc2)n1
Plasmodium berghei [1]
  Activity: 94%
[2]
  Cmax: 1600 nM
[3]
  fraction unbound at 200 ng/mL: 0.029
Plasmodium berghei [4]
  MSD: 8 days
Cytochrome P450 2D6
  IC50: 0.4 µM
Plasmodium berghei [5]
  Activity: 99.5%
Cytochrome P450 2C9
  IC50: 10 µM
Liver
  Stability: Stable
[6]
  AUC(0-inf): 4.82 µM·h
Plasmodium berghei [7]
  ED50: 37 mg/kg
  ED90: 86 mg/kg
[8]
  fraction unbound at 200 ng/mL: 0.06
L6
  IC50: 4.9 µM
[9]
  bioavailability: 50.4%
[10]
  chromatographic logD: 2.4
[11]
  AUC(0-inf): 11.8 µM·h
[12]
  Tmax: 3.25 h
CYP3A4/5 [13]
  IC50: > 30 µM
Cytochrome P450 2C19
  IC50: 15 µM
[14]
  Vd: 10.1 L/kg
Liver microsomes [15]
  Stability: Stable
Cytochrome P450 1A2
  IC50: 1.5 µM
CYP3A4/5 [16]
  IC50: > 30 µM
Plasmodium falciparum [17]
  IC50: 0.08 µM
[18]
  blood plasma ratio: 1.1
[19]
  solubility: 4930 µg/mL (≈ 13300 µM)
Plasmodium berghei [20]
  Activity: 99.4%
[21]
  solubility: 142 µg/mL (≈ 385 µM)
[22]
  clearance: 42.6 mL/min/kg
Plasmodium berghei [23]
  MSD: 6 days
Plasmodium berghei [24]
  MSD: 6 days
[25]
  half-life: 3.7 h
[26]
  clearance: 39.1 mL/min/kg
[27]
  fraction unbound at 200 ng/mL: 0.021
Plasmodium berghei [28]
  Activity: <40%
Plasmodium berghei [29]
  MSD: 9 days
Plasmodium falciparum [30]
  IC50: 0.07 µM
Liver microsomes [31]
  Stability: Stable
[32]
  IC50: 3.7 µM
Plasmodium berghei [33]
  MSD: 3 days
[34]
  half-life: 3.1 h
Plasmodium berghei [35]
  Activity: <40%
[36]
  chromatographic logD: 3.5

## CC(=O)NCc1csc(NC(=O)c2cc(C(C)(C)C)nn2Cc2ccccc2)n1
Liver
  Stability: Unstable
[37]
  solubility kinetic: 12.5 µg/mL (≈ 30.4 µM)
[10]
  chromatographic logD: 3.3
Liver microsomes [15]
  Stability: Unstable
Plasmodium falciparum [17]
  IC50: 4.27 µM
[38]
  solubility kinetic: 12.5 µg/mL (≈ 30.4 µM)
Plasmodium falciparum [30]
  IC50: 6.24 µM
Liver microsomes [31]
  Stability: Unstable
[36]
  chromatographic logD: 3.3

## CC(C)(C)c1cc(C(=O)Nc2nc(CNS(C)(=O)=O)cs2)n(Cc2ccccc2)n1
Liver
  Stability: Unstable
[37]
  solubility kinetic: 3.1 µg/mL (≈ 6.93 µM)
[10]
  chromatographic logD: 3.7
Liver microsomes [15]
  Stability: Unstable
Plasmodium falciparum [17]
  IC50: 2.93 µM
[38]
  solubility kinetic: 3.1 µg/mL (≈ 6.93 µM)
Plasmodium falciparum [30]
  IC50: 4.68 µM
Liver microsomes [31]
  Stability: Unstable
[36]
  chromatographic logD: 3.7

## CN(C)Cc1csc(NC(=O)c2cc(C(C)(C)C)nn2Cc2ccccc2)n1
Liver
  Stability: Unstable
[37]
  solubility kinetic: 25 µg/mL (≈ 62.9 µM)
[10]
  chromatographic logD: 2.6
Liver microsomes [15]
  Stability: Unstable
Plasmodium falciparum [17]
  IC50: 1.48 µM
[38]
  solubility kinetic: > 100 µg/mL
Plasmodium falciparum [30]
  IC50: 2.41 µM
Liver microsomes [31]
  Stability: Unstable
[36]
  chromatographic logD: 4.2

## CNCc1csc(NC(=O)c2cc(C(C)(C)C)nn2Cc2ccccc2)n1
Liver
  Stability: Stable
[37]
  solubility kinetic: 12.5 µg/mL (≈ 32.6 µM)
[10]
  chromatographic logD: 2.6
Liver microsomes [15]
  Stability: Stable
Plasmodium falciparum [17]
  IC50: 0.19 µM
[38]
  solubility kinetic: 25 µg/mL (≈ 65.2 µM)
Plasmodium falciparum [30]
  IC50: 0.16 µM
Liver microsomes [31]
  Stability: Stable
[36]
  chromatographic logD: 3.8

## CC(C)(C)c1cc(C(=O)Nc2nc(CO)cs2)n(Cc2ccccc2)n1
Liver
  Stability: Unstable
[37]
  solubility kinetic: 3.1 µg/mL (≈ 8.37 µM)
[10]
  chromatographic logD: 3.5
Liver microsomes [15]
  Stability: Unstable
Plasmodium falciparum [17]
  IC50: 0.67 µM
[38]
  solubility kinetic: 12.5 µg/mL (≈ 33.7 µM)
Plasmodium falciparum [30]
  IC50: 0.71 µM
Liver microsomes [31]
  Stability: Unstable
[36]
  chromatographic logD: 3.4

## CCN(CC)CCCC(C)Nc1ccnc2cc(Cl)ccc12 (stereo unspecified) [CHLOROQUINE]
Plasmodium berghei [1]
  Activity: >99.9%
Plasmodium berghei [7]
  ED50: 1.9 mg/kg
  ED90: 4.2 mg/kg
Plasmodium berghei [23]
  MSD: 9 days
Plasmodium berghei [24]
  MSD: 12 days
Plasmodium berghei [28]
  Activity: 99.5%
Plasmodium berghei [33]
  MSD: 7 days
Plasmodium berghei [35]
  Activity: 99.7%
